The experiment addresses IDH1 R132H (Homo sapiens, UniProt O75874, R132H). The experiment can be described thus: Assay for IDH1 R132H inhibitors (NADPH/aKG, resazurin detection). It counts as biochemical. As to conditions: Table 3; enzyme assay, 50 minutes at room temperature; read-out: IC50 (IDH1 R132H Inhibition). The procedure:
Assays were conducted in a volume of 76 μl assay buffer (150 mM NaCl, 10 mM MgCl2, 20 mM Tris pH 7.5, 0.03% bovine serum albumin) as follows in a standard 384-well plate: To 25 ul of substrate mix (8 uM NADPH, 2 mM aKG), 1 μl of test compound was added in DMSO. The plate was centrifuged briefly, and then 25 μl of enzyme mix was added (0.2 μg/ml IDH1 R132H) followed by a brief centrifugation and shake at 100 RPM. The reaction was incubated for 50 minutes at room temperature, then 25 μl of detection mix (30 μM resazurin, […]) was added and the mixture further incubated for 5 minutes at room temperature. The conversion of resazurin to resorufin was detected by fluorescent spectroscopy at Ex544 Em590 c/o 590.
A general note: Alamar Blue is a resazurin reagent that responds to reducing activity.

Consider 34 compounds from patent US9856279B2 (AGIOS PHARMACEUTICALS, INC, priority 2011, dated 2018).

IDH1 R132H, sequence (O75874 whole entry R132H): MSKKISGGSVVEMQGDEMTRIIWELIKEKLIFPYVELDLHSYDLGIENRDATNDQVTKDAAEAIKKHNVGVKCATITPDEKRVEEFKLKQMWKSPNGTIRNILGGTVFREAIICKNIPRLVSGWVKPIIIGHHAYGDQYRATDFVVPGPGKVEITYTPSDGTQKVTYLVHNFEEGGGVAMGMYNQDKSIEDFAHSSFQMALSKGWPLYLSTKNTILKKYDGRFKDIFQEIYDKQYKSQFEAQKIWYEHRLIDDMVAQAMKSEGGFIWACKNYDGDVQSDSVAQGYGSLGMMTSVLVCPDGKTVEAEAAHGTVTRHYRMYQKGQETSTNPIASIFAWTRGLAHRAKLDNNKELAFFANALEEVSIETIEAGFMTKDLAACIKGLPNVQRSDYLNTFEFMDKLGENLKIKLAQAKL

By IC50 is commonly meant the concentration at which inhibition is half-maximal. Turning to `CC(C)c1cc(-c2cccc(F)c2)c(C#N)c(N2CCN(C(=O)c3c[nH]c4ccccc34)CC2)n1` [Compound 116, 2-(4-(1H-indole-3-carbonyl)piperazin-1-yl)-4-(3-fluorophenyl)-6-isopropylnicotinonitrile], the IC50 lay within 5 to 15 µM.
On to `CC1CN(c2nc(-c3ccccc3)c(-c3ccccc3)cc2C#N)CCN1C(=O)c1ccco1` (stereo not shown) [Compound 117, 2-(4-(furan-2-carbonyl)-3-methylpiperazin-1-yl)-5,6-diphenylnicotinonitrile], for which the IC50 is 5 to 15 µM.
Then `CC1CN(c2nc(-c3ccccc3)c(-c3ccccc3)cc2C#N)CCN1C(=O)c1ccoc1` (stereo not shown) [Compound 118, 2-(4-(furan-3-carbonyl)-3-methylpiperazin-1-yl)-5,6-diphenylnicotinonitrile], with 5 to 15 µM.
Then `CC(C)c1nc(N2CCN(C(=O)c3ccco3)C(C)C2)c(C#N)cc1-c1ccccc1` (stereo not shown) [Compound 119, 2-(4-(furan-2-carbonyl)-3-methylpiperazin-1-yl)-6-isopropyl-5-phenylnicotinonitrile], with 5 to 15 µM; and `CC(C)c1nc(N2CCN(C(=O)c3ccoc3)C(C)C2)c(C#N)cc1-c1ccccc1` (stereo not shown) [Compound 120, 2-(4-(furan-3-carbonyl)-3-methylpiperazin-1-yl)-6-isopropyl-5-phenylnicotinonitrile], with 1 to 5 µM; and `CC(C)c1cc(-c2ccccc2)c(C#N)c(N2CCN(C(=O)Cc3ccccc3)C(C)C2)n1` (stereo not shown) [Compound 121, 6-isopropyl-2-(3-methyl-4-(2-phenylacetyl)piperazin-1-yl)-4-phenylnicotinonitrile], with 5 to 15 µM.
The result for `N#Cc1cc(-c2ccccc2)c(-c2ccccc2)nc1N1CCN(C(=O)c2ccoc2)CC1` [Compound 122, 2-(4-(furan-3-carbonyl)piperazin-1-yl)-5,6-diphenylnicotinonitrile] reads 5 to 15 µM; that for `N#Cc1cc(-c2ccccc2)c(-c2ccccc2)nc1N1CCN(C(=O)Cc2ccccc2)CC1` [Compound 123, 5,6-diphenyl-2-(4-(2-phenylacetyl)piperazin-1-yl)nicotinonitrile], 5 to 15 µM.
Consider `CC(C)c1nc(N2CCN(C(=O)c3ccoc3)CC2)c(C#N)cc1-c1ccccc1` [Compound 124, 2-(4-(furan-3-carbonyl)piperazin-1-yl)-6-isopropyl-5-phenylnicotinonitrile], for which the IC50 lay within 5 to 15 µM.
Then `CC(C)c1nc(N2CCN(C(=O)c3c[nH]c4ccccc34)CC2)c(C#N)cc1-c1ccccc1` [Compound 125, 2-(4-(1H-indole-3-carbonyl)piperazin-1-yl)-6-isopropyl-5-phenylnicotinonitrile], with 5 to 15 µM.
The result for `CC(C)c1nc(N2CCN(C(=O)Cc3ccccc3)CC2)c(C#N)cc1-c1ccccc1` [Compound 126, 6-isopropyl-5-phenyl-2-(4-(2-phenylacetyl)piperazin-1-yl)nicotinonitrile] reads 1 to 5 µM; that for `CC(C)c1cc(-c2cccc(F)c2)c(C#N)c(N2CCN(C(=O)c3ccco3)C(C)C2)n1` (stereo not shown) [Compound 127, 4-(3-fluorophenyl)-2-(4-(furan-2-carbonyl)-3-methylpiperazin-1-yl)-6-isopropylnicotinonitrile], 5 to 15 µM; that for `CC(C)c1cc(-c2cccc(F)c2)c(C#N)c(N2CCN(C(=O)c3ccoc3)C(C)C2)n1` (stereo not shown) [Compound 128, 4-(3-fluorophenyl)-2-(4-(furan-3-carbonyl)-3-methylpiperazin-1-yl)-6-isopropylnicotinonitrile], 1 to 5 µM.
Then `CC(C)c1cc(-c2cccc(F)c2)c(C#N)c(N2CCN(C(=O)c3c[nH]c4ccccc34)C(C)C2)n1` (stereo not shown) [Compound 129, 2-(4-(1H-indole-3-carbonyl)-3-methylpiperazin-1-yl)-4-(3-fluorophenyl)-6-isopropylnicotinonitrile], with 5 to 15 µM; and `CC(C)c1cc(-c2ccccc2)c(C#N)c(N2CCN(C(=O)c3ccoc3)[C@H](C)C2)n1` [Compound 130, (R)-2-(4-(furan-3-carbonyl)-3-methylpiperazin-1-yl)-6-isopropyl-4-phenylnicotinonitrile], with 1 to 5 µM.
Regarding `CC(C)c1cc(-c2ccccc2)c(C#N)c(N2CCN(C(=O)Cc3ccccc3)[C@H](C)C2)n1` [Compound 131, (R)-6-isopropyl-2-(3-methyl-4-(2-phenylacetyl)piperazin-1-yl)-4-phenylnicotinonitrile], the IC50 was in the range of 1 to 5 µM.
The result for `CC(C)c1cc(-c2ccccc2)c(C#N)c(N2CCN(C(=O)c3ccoc3)[C@@H](C)C2)n1` [Compound 132, (S)-2-(4-(furan-3-carbonyl)-3-methylpiperazin-1-yl)-6-isopropyl-4-phenylnicotinonitrile] reads 1 to 5 µM.
Take `CC(C)c1cc(-c2ccccc2)c(C#N)c(N2CCN(C(=O)Cc3ccccc3)[C@@H](C)C2)n1` [Compound 133, (S)-6-isopropyl-2-(3-methyl-4-(2-phenylacetyl)piperazin-1-yl)-4-phenylnicotinonitrile]: the IC50 is 1 to 5 µM.
The result for `CC(C)c1cc(-c2cccc(F)c2)c(C#N)c(N2CC(C)N(C(=O)c3ccoc3)C(C)C2)n1` (stereo not shown) [Compound 134, 4-(3-fluorophenyl)-2-(4-(furan-3-carbonyl)-3,5-dimethylpiperazin-1-yl)-6-isopropylnicotinonitrile] reads 1 to 5 µM.
For `CC(C)c1cc(-c2cccc(F)c2)c(C#N)c(N2CC(C)N(C(=O)Cc3ccccc3)C(C)C2)n1` (stereo not shown) [Compound 135, 2-(3,5-dimethyl-1-(2-phenylacetyl)piperazin-1-yl)-4-(3-fluorophenyl)-6-isopropylnicotinonitrile], the IC50 lay within 1 to 5 µM.
Then `CC(C)c1cc(-c2cccc(F)c2)c(C#N)c(N2CC(C)N(C(=O)c3ccco3)C(C)C2)n1` (stereo not shown) [Compound 136, 4-(3-fluorophenyl)-2-(4-(furan-2-carbonyl)-3,5-dimethylpiperazin-1-yl)-6-isopropylnicotinonitrile], with 5 to 15 µM; and `N#Cc1c(-c2ccccc2)cc(C2CCCCC2)nc1N1CCN(C(=O)c2ccco2)CC1` [Compound 137, 6-cyclohexyl-2-(4-(furan-2-carbonyl)piperazin-1-yl)-4-phenylnicotinonitrile], with 5 to 15 µM.
Regarding `CC1CN(c2nc(C3CCCCC3)cc(-c3ccccc3)c2C#N)CCN1C(=O)c1ccoc1` (stereo not shown) [Compound 138, 6-cyclohexyl-2-(4-(furan-3-carbonyl)-3-methylpiperazin-1-yl)-4-phenylnicotinonitrile], the IC50 was 1 to 5 µM.
Regarding `CC(C)c1nc(N2CCN(C(=O)Cc3ccccc3)C(C)C2)c(C#N)cc1-c1ccccc1` (stereo not shown) [Compound 139, 6-isopropyl-2-(3-methyl-4-(2-phenylacetyl)piperazin-1-yl)-5-phenylnicotinonitrile], the half-maximal inhibitory concentration (IC50) lay within 1 to 5 µM.
Take `CC(C)c1nc(N2C[C@@H](C)N(C(=O)Cc3ccccc3)[C@@H](C)C2)c(C#N)cc1-c1ccccc1` [Compound 140, 2-((3S,5R)-3,5-dimethyl-4-(2-phenylacetyl)piperazin-1-yl)-6-isopropyl-5-phenylnicotinonitrile]: the IC50 was in the range of 1 to 5 µM.
The result for `CC(C)c1nc(N2C[C@@H](C)N(C(=O)c3ccoc3)[C@@H](C)C2)c(C#N)cc1-c1ccccc1` [Compound 141, 2-((3S,5R)-4-(furan-3-carbonyl)-3,5-dimethylpiperazin-1-yl)-6-isopropyl-5-phenylnicotinonitrile] reads 5 to 15 µM; that for `C[C@@H]1CN(c2nc(C3CCCCC3)cc(-c3ccccc3)c2C#N)C[C@H](C)N1C(=O)c1ccoc1` [Compound 142, 6-cyclohexyl-2-((3S,5R)-4-(furan-3-carbonyl)-3,5-dimethylpiperazin-1-yl)-4-phenylnicotinonitrile], 1 to 5 µM; that for `CC(C)c1nc(N2CCN(C(=O)Cc3ccccc3)[C@H](C)C2)c(C#N)cc1-c1ccccc1` [Compound 143, (R)-6-isopropyl-2-(3-methyl-4-(2-phenylacetyl)piperazin-1-yl)-5-phenylnicotinonitrile], 1 to 5 µM.
For the compound `CC(C)c1nc(N2CCN(C(=O)c3ccoc3)[C@@H](C)C2)c(C#N)cc1-c1ccccc1` [Compound 144, (S)-2-(4-(furan-3-carbonyl)-3-methylpiperazin-1-yl)-6-isopropyl-5-phenylnicotinonitrile], the IC50 fell in the range of 1 to 5 µM.
Then `COc1ccccc1-c1cc(C(C)C)nc(N2CCN(C(=O)Cc3ccccc3)CC2)c1C#N` [Compound 146, 6-isopropyl-4-(2-methoxyphenyl)-2-(4-(2-phenylacetyl)piperazin-1-yl)nicotinonitrile], with 5 to 15 µM; and `COc1ccccc1-c1cc(C(C)C)nc(N2CCN(C(=O)c3ccco3)C(C)C2)c1C#N` (stereo not shown) [Compound 147, 2-(4-(furan-2-carbonyl)-3-methylpiperazin-1-yl)-6-isopropyl-4-(2-methoxyphenyl)nicotinonitrile], with 5 to 15 µM; and `COc1ccccc1-c1cc(C(C)C)nc(N2CCN(C(=O)c3ccoc3)[C@H](C)C2)c1C#N` [Compound 148, (R)-2-(4-(furan-3-carbonyl)-3-methylpiperazin-1-yl)-6-isopropyl-4-(2-methoxyphenyl)nicotinonitrile], with 1 to 5 µM.
Then `COc1ccccc1-c1cc(C(C)C)nc(N2CCN(C(=O)Cc3ccccc3)C(C)C2)c1C#N` (stereo not shown) [Compound 149], with 1 to 5 µM.
As to `CC(C)c1nc(N2CCN(C(=O)c3ccoc3)[C@H](C)C2)c(C#N)cc1-c1ccccc1` [Compound 150, (R)-2-(4-(furan-3-carbonyl)-3-methylpiperazin-1-yl)-6-isopropyl-5-phenylnicotinonitrile], the IC50 was in the range of 1 to 5 µM.
